Assay: mn = molality of the nth substance listed, in mol/kg
Settings: Liquid, m1 = 7.377; for viscosity: Falling or rolling sphere viscometry; for mass density: Vibrating tube method

CN(CCO)CCO [N-methyldiethanolamine] + O
Settings | mass density [kg/m3] | viscosity [mPa·s]
313.15 K, 6.3 kPa | 1031.4 | 4.23
328.15 K, 13.7 kPa | 1021.6 | 2.82
343.15 K, 27.4 kPa | 1009.7 | 1.83

From the NIST ThermoML archive (doi:10.1016/j.jct.2016.06.007)
